# Reference: patent US20130252951A1, “7-HYDROXY-PYRAZOLO[1,5-A] PYRIMIDINE COMPOUNDS AND THEIR USE AS CCR2 RECEPTOR ANTAGONISTS” (Proximagen Limited, priority 2010, published 2013)
# Target: human CCR2 (Homo sapiens, UniProt P41597)
# Test: CCR2 functional calcium assay (FLIPR calcium flux, hMCP-1 challenge)
# Assay type: cell-based
# Set-up: expressed in transfected cells; host or cells: HEK293 EBNA cells
# Details: HEK293 EBNA cells transfected with human CCR2, hMCP-1 challenge; read-out: Functional CCR2 fKi
# Source text: The CCR2 receptor couples through the Gi/Gq signaling pathway and results in activation of calcium mobilization. The functional activity of test compounds was routinely tested by measuring the ability of compounds to antagonize CCR2 activity in a dose dependent manner, in HEK293 EBNA cells transfected with the human CCR2 receptor (hMCP-1 challenge), using a calcium flux Fluorescent Imaging Plate Reader FLIPR assay. Non-transfected HEK293 EBNA cells were used as control of non-specific response.
# Briefly, test compounds were dissolved in dimethyl sulfoxide (DMSO) to a concentration of 10 mM and stored in matrix screenmate racks. The required amount of compound was transferred to 96-well compound plates on the day of assay and diluted in assay buffer to the required final concentration; dose-response measurements were assayed by making 1:3 serial dilutions to produce 10 point curves. The compounds were then transferred to 384-well assay plates ready for use. Top concentrations were adjusted depending on the potency of the compounds with a typical concentration range of 30 μM to 0.5 nM being used. The assay buffer used was HBSS buffer supplemented with 20 mM HEPES and 0.1% BSA, pH7.4. The loading/wash buffers were the same as the assay buffer.
# Cells were suspended in culture medium at a density of 10000 cells/50 μl (the cell culture media composition was DMEM high glucose supplemented with 10% dialyzed FBS, 250 μg/ml Geneticin, and 400 μg/ml Hygromycin B), transferred to 384-well black/clear Costar plates (Costar #3712) (50 μl/well) and incubated at 37° C., in a 5% CO2/95% air humidified incubator for 16 h. The cells were washed with assay buffer at 37° C. using the Biotek ELx 405, washing 3 times, leaving 20 μl buffer in the well. 20 μl Fluo-4 (Fluo-4 stock solution (1 mM) was prepared by dissolving one vial of Fluo-4 (50 μg) in 45 μl of pluronic acid (240 mg/ml in DMSO). This stock solution of Fluo-4 was then diluted 250 times with loading buffer to give a Fluo-4 concentration of 4 μM. The dye solution (used within 2 h and kept away from light) was added to each well using a repeating multichannel pipette; the cells were then incubated at 37° C. for 60 min. Following the incubation, cells were washed in assay buffer at 37° C. using the Biotek ELx 405, washing 3 times, leaving 40 μl in each well and incubated for 10 min at 37° C. before use. A combined agonist/antagonist protocol was used. Compound (antagonist) was added to the cell plate using the FLIPR. Basal fluorescence was recorded every second for 10 seconds prior to compound addition (10 μl) and fluorescence recorded every second for 1 minute then every 6 seconds for a further 1 minute. Agonist (MCP-1) was then added using the FLIPR and fluorescence recorded as described above.
# The positive control (agonist) was human recombinant MCP-1 which was stored as a stock concentration of 10 μM in distilled water and stored at −20° C. (maximal response: 30 nM; EC50 dose: 3-5 nM). The reference compound (antagonist) was RS102895 which was used as a 10 mM DMSO solution and stored at −20° C.
# FLIPR responses were measured as peak minus basal fluorescence intensity and were expressed as a percentage of EC50 MCP-1 challenge. Curve-fitting and parameter estimation were carried out using GraphPad Prism 4.0 (GraphPad Software Inc., San Diego, Calif.).
# Sequence of human CCR2 (P41597 whole entry): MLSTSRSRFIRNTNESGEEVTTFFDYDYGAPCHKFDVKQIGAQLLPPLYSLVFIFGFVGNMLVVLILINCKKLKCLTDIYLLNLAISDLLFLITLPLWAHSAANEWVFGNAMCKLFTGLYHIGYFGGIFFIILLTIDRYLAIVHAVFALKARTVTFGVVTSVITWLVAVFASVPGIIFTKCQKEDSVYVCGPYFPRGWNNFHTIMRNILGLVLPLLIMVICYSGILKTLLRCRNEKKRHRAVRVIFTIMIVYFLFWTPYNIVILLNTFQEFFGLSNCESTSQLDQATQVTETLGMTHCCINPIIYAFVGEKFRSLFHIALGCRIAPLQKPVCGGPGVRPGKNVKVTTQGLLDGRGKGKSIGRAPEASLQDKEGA
row,SMILES,Ki [µM]
1,"Oc1c(Cc2cccc(F)c2)c(-c2cnccn2)nc2cncn12 [Example 3, 3-[(3-Fluorophenyl)methyl]-2-(pyrazin-2-yl)imidazo[1,5-a]pyrimidin-4-ol]",0.1 to 1
2,"Cc1ccc(Cc2c(C)nc3c(C(=O)NCCc4ccccn4)cnn3c2O)cc1 [Example 111, 7-Hydroxy-5-methyl-6-[(4-methylphenyl)-methyl]-N-[2-(pyridin-2-yl)ethyl]pyrazolo-[1,5-a]pyrimidine-3-carboxamide]",0.1 to 1
3,"CCc1nc2ccnn2c(O)c1Cc1cc(F)cc(F)c1 [Example 12, 6-[(3,5-difluorophenyl)methyl]-5-ethyl-pyrazolo[1,5-a]pyrimidin-7-ol]",< 0.01
4,"CC(C)c1nc2ccnn2c(O)c1Cc1cc(F)cc(Cl)c1 [Example 39, 6-[(3-Chloro-5-fluorophenyl)methyl]-5-(propan-2-yl)pyrazolo[1,5-a]pyrimidin-7-ol]",< 0.01
5,"COCCNC(=O)c1cnn2c(O)c(Cc3ccc(C)cc3)c(C)nc12 [Example 102, 7-Hydroxy-N-(2-methoxyethyl)-5-methyl-6-[(4-methylphenyl)methyl]pyrazolo[1,5-a]pyrimidine-3-carboxamide]",0.1 to 1
6,"Oc1c(Cc2cc(F)cc(Cl)c2)c(C2CC2)nc2ccnn12 [Example 29, 6-[(3-Chloro-5-fluorophenyl)methyl]-5-cyclopropylpyrazolo[1,5-a]pyrimidin-7-ol]",< 0.01
7,"CC(C)c1nc2ccnn2c(O)c1Cc1ccc(Cl)c(Cl)c1 [Example 41, 6-[(3,4-Dichlorophenyl)methyl]-5-(propan-2-yl)pyrazolo[1,5-a]pyrimidin-7-ol]",< 0.01
8,"CC(C)c1nc2ccnn2c(O)c1Oc1ccc(Cl)c(Cl)c1 [Example 68, 6-(3,4-diChlorophenoxy)-5-(propan-2-yl)-pyrazolo[1,5-a]pyrimidin-7-ol]",< 0.01
9,"Oc1c(Cc2ccc(F)c(F)c2)c(C2CCC2)nc2ccnn12 [Example 45, 5-Cyclobutyl-6-[(3,4-difluorophenyl)-methyl]pyrazolo[1,5-a]pyrimidin-7-ol]",< 0.01
10,"Cc1nc2ccnn2c(O)c1Cc1ccc(F)c(C#N)c1 [Example 8, 2-Fluoro-5-({7-hydroxy-5-methylpyrazolo-(1,5-a]pyrimidin-6-yl}methyl)benzonitrile]",0.1 to 1
11,"CC(C)c1nc2ccnn2c(O)c1Cc1ccc(Cl)c(F)c1 [Example 38, 6-[(4-Chloro-3-fluorophenyl)methyl]-5-(propan-2-yl)pyrazolo[1,5-a]pyrimidin-7-ol]",< 0.01
12,"COCCNC(=O)c1cnn2c(O)c(Cc3ccc(Cl)cc3)c(COC)nc12 [Example 118, 6-[(4-Chlorophenyl)methyl]-7-hydroxy-N-(2-methoxy-ethyl)5-(methoxymethyl)-pyrazolo[1,5-a]pyrimidine-3-carboxamide]",0.1 to 1
13,"Oc1c(Cc2ccc(Cl)c(Cl)c2)c(C2CCCO2)nc2ccnn12 (stereo not shown) [Example 56, 6-[(3,4-Dichlorophenyl)methyl]-5-(oxolan-2-yl)pyrazolo[1,5-a]pyrimidin-7-ol]",< 0.01
14,"Cc1nc2c(C(=O)N(C)C)cnn2c(O)c1Cc1ccc(Cl)cc1 [Example 100, 6-[(4-Chlorophenyl)methyl]-7-hydroxy-N,N,5-trimethylpyrazolo[1,5-a]pyrimidine-3-carboxamide]",0.1 to 1
15,"COCc1nc2ccnn2c(O)c1Cc1ccc(Cl)c(Cl)c1 [Example 53, 6-[(3,4-Dichlorophenyl)methyl]-5-(methoxymethyl)pyrazolo[1,5-a]pyrimidin-7-ol]",< 0.01
16,"Oc1c(Cc2ccc(F)c(C(F)(F)F)c2)c(C2CCC2)nc2ccnn12 [Example 47, 5-Cyclobutyl-6-{[4-fluoro-3-(trifluoro-methyl)phenyl]methyl}pyrazolo[1,5-a]-pyrimidin-7-ol]",< 0.01
17,"CCOC(=O)c1nc2ccnn2c(O)c1Cc1cccc(F)c1 [Example 73, Ethyl 6-[(3-fluorophenyl)methyl]-7-hydroxypyrazolo[1,5-a]pyrimidine-5-carboxylate]",0.1 to 1
18,"Cc1nc2c(C(=O)NCCOc3ccccc3)cnn2c(O)c1Cc1ccccc1 [Example 103, 6-Benzyl-7-hydroxy-5-methyl-N-(2-phenoxyethyl)pyrazolo[1,5-a]pyrimidine-3-carboxamide]",0.1 to 1
19,"CCc1nc2ccnn2c(O)c1Oc1cccc(C(F)(F)F)c1 [Example 61, 5-Ethyl-6-[3-(trifluoromethyl)phenoxy] pyrazolo[1,5-a]pyrimidin-7-ol]",0.1 to 1
20,"Oc1c(Cc2ccc(C(F)(F)F)c(F)c2)c(C2CC2)nc2ccnn12 [Example 32, 5-Cyclopropyl-6-{[3-fluoro-4-(trifluoromethyl)phenyl]methyl}pyrazolo[1,5-a]pyrimidin-7-ol]",< 0.01
21,"COCCc1nc2ccnn2c(O)c1Cc1ccc(Cl)cc1 [Example 54, 6-[(4-Chlorophenyl)methyl]-5-(2-methoxyethyl)pyrazolo[1,5-a]pyrimidin-7-ol]",0.01 to 0.1

# Continued, values first:
row,Ki [µM],SMILES
1,0.01 to 0.1,"CCOC(=O)c1nc2ccnn2c(O)c1Oc1ccc(Cl)c(Cl)c1 [Example 76, Ethyl 6-(3,4-dichlorophenoxy)-7-hydroxy-pyrazolo[1,5-a]pyrimidine-5-carboxylate]"
2,0.01 to 0.1,"Oc1c(Cc2cccc(OC(F)(F)F)c2)c(C2CC2)nc2ccnn12 [Example 20, 5-Cyclopropyl-6-{[3-(trifluoromethoxy)-phenyl]methyl}pyrazolo[1,5-a]pyrimidin-7-ol]"
3,< 0.01,"Oc1c(Cc2ccc(Cl)c(F)c2)c(C2CC2)nc2ccnn12 [Example 27, 6-[(4-Chloro-3-fluorophenyl)methyl]-5-cyclopropylpyrazolo[1,5-a]pyrimidin-7-ol]"
4,< 0.01,"CCc1nc2ccnn2c(O)c1Oc1ccc(F)c(F)c1 [Example 62, 6-(3,4-Difluorophenoxy)-5-ethyl-pyrazolo[1,5-a]pyrimidin-7-ol]"
5,0.01 to 0.1,"Oc1c(Cc2ccc(OC(F)(F)F)cc2)c(C2CC2)nc2ccnn12 [Example 19, 5-Cyclopropyl-6-{[4-(trifluoromethoxy)-phenyl]methyl}pyrazolo[1,5-a]pyrimidin-7-ol]"
6,0.1 to 1,"Cc1nc2ccnn2c(O)c1Sc1cccc(F)c1 [Example 77, 6-[(3-Fluorophenyl)sulfanyl]-5-methyl-pyrazolo[1,5-a]pyrimidin-7-ol]"
7,0.1 to 1,"C=CCNC(=O)c1cnn2c(O)c(Cc3ccc(Cl)cc3)c(C)nc12 [Example 106, 6-[(4-Chlorophenyl)methyl]-7-hydroxy-5-methyl-N-(prop-2-en-1-yl)pyrazolo[1,5-a]-pyrimidine-3-carboxamide]"
8,< 0.01,"CC(C)OC(=O)c1nc2ccnn2c(O)c1Cc1ccc(Cl)c(Cl)c1 [Example 84, Propan-2-yl 6-[(3,4-dichlorophenyl)-methyl]-7-hydroxy pyrazolo[1,5-a]-pyrimidine-5-carboxylate]"
9,0.1 to 1,"COc1cccc(Cc2c(C)nc3ccnn3c2O)c1 [Example 10, 6-[(3-Methoxyphenyl)methyl]-5-methyl-pyrazolo[1,5-a]pyrimidin-7-ol]"
10,< 0.01,"CC(C)OC(=O)c1nc2ccnn2c(O)c1Cc1cccc(Cl)c1 [Example 82, Propan-2-yl 6-[(3-chlorophenyl)methyl]-7-hydroxypyrazolo[1,5-a]pyrimidine-5-carboxylate]"
11,< 0.01,"CC(C)c1nc2ccnn2c(O)c1Oc1ccc(Cl)c(F)c1 [Example 67, 6-(4-Chloro-3-fluorophenoxy)-5-(propan-2-yl)pyrazolo[1,5-a]pyrimidin-7-ol]"
12,0.1 to 1,"COCCNC(=O)c1cnn2c(O)c(Cc3cccc(Cl)c3)c(C)nc12 [Example 116, 6-[(3-Chlorophenyl)methyl]-7-hydroxy-N-(2-methoxyethyl)-5-methylpyrazolo[1,5-a]-pyrimidine-3-carboxamide]"
13,< 0.01,"Oc1c(Cc2ccc(Cl)cc2)c(C2CCC2)nc2ccnn12 [Example 44, 6-[(4-Chlorophenyl)methyl]-5-cyclobutyl-pyrazolo[1,5-a]pyrimidin-7-ol]"
